Columns and labels:
Format in all cases: biochemical
[1] = target: T1, Klenow exonuclease-free polymerase (Escherichia coli, UniProt P00582, D355A/E357A); assay: Template-dependent 3' labelling / primer A extension, polyacrylamide gel; settings: for enzymatic incorporation at 3' end of primer A: MATPP 400, 200, 50 μM, MATPPF 2.5 mM, 400, 200, 50 μM, 37° C., 10 minutes; for interruption of chain elongation after incorporation: with dGTP and dTTP (solution 2P), FIG. 4
T1 construct: purchased Amersham Life Science
Procedure: (§1) Use of morpholino A putrescine (MATPP) and morpholino A fluorescein (MATPPF) for the template-dependent 3′ labelling of DNA fragments; test of enzymatic incorporation of these compounds by three polymerases (Taq, Klenow, Klenow Exo Free) and a reverse transcriptase.
(§2) These two nucleoside triphosphate derivatives are tested in enzymatic incorporation to label an oligonucleotide 13 bases long at its 3′ end. This labelling is referred to as “template-dependent” since the enzymes used need the complementary strand to extend the oligonucleotide according to the Watson & Crick rules. Sequence A (17870 pmol/mL) studied and also its complementary target C (16128 pmol/mL) are given in the figure below: • Target C: 3′-TGCCAACCAACCCCACCTCAACCTCTG-5′ (SEQ ID NO: 7) • Primer A: 5′-ACG GTT GGT TGG G (13 bp) (SEQ ID NO: 8) • Expected fragments: 5′-ACG GTT TGG GGT GGA (18 bp) (SEQ ID NO: 9) • and lengths (bp): 5′-ACGGTTGGTTGGGGTGGAGTTGGA (24 bp)(SEQ ID NO: 10) 5′-ACGGTTGGTTGGGGTGGAGTTGGAGA (26 bp) (SEQ ID NO: 11) 5′-ACGGTTGGTTGGGGTGGAGTTGGAGAC (27 bp) (SEQ ID NO: 12)
(§3) Three enzymes are used for this labelling: Taq DNA polymerase (Boehringer Mannheim), the Klenow fragment (Boehringer Mannheim) and the Klenow exonuclease-free polymerase (Amersham Life Science). The primer is labelled at its 5′ end by incorporation of ^32P phosphate with the “Ready to go” T4 Polynucleotide Kinase kit (Pharmacia Biotech). The radiolabelled primer is noted A*.
(§4) The reaction buffers for the three enzymes are prepared for 10 reactions:
(§5) The enzymes are then diluted in the following manner, for 10 reactions: • Taq (5U/μL): 10×0.1 μL of Taq+10×15.5 μL of H2O • Klenow (20U/μL): 10×0.1 μL of Klenow+10×15.5 μL of H2O • Klenow Exo Free (5U/μL): 10×0.1 μL of Klenow Exo Free+10×15.5 μL of H2O.
(§6) Solutions containing the normal nucleoside triphosphates are also prepared: • Solution “2P” composed of a mixture of dGTP and dTTP each at 0.1 mM • Solution “4P” composed of a mixture of dATP, dCTP, dGTP and dTTP each at 0.1 mM
(§7) The implementation reactions are described in Table 14 below:
(§8) The morpholino A putrescine is thus tested at three concentrations: 400, 200 and 50 μM, while the morpholino A fluorescein is reacted at 2.5 mM, 400, 200 and 50 μM.
(§9) Before adding the enzyme, the mixture is denatured at 94° C. for 5 minutes. It is then left to return to ambient temperature in order for the hybridization to take place. The elongation is carried out at 70° C. for the Taq and at 37° C. for the two Klenow fragments, and for 10 minutes. Finally, the medium is again denatured with a formamide solution and heating at 90° C. for 5 minutes, after which it is placed on a polyacrylamide gel. The separation is carried out by electrophoresis at 2000 V. The gel is read using a Phosphorimager; the results obtained are given in FIG. 4.
(§10) In this figure, the lanes 1 serve as migration control for the labelled oligonucleotide A. This oligonucleotide has a length of 13 bases (13-mer). Lanes 2, 3 and 4 allow the elongation of the oligonucleotide A and the incorporation of the morpholino A putrescine to be monitored. Under these conditions, only the nucleotides dGTP and dTTP (solution “2P”) were added and can be used by the enzyme to carry out the extention of the primer. The presence of the morpholino A putrescine in the reaction medium allows its incorporation at the level of base 18. A control was carried out, placing in the medium only the “2P” mixture; in this case, the enzyme continues its extension up to the 17th base since it has no adenosine derivative to continue its polymerization. […] Reactions 5 to 8 correspond to the same reactions with morpholino A fluorescein. […] It is noted, however, for the two Klenow fragments, that there was occasionally incorporation of another base (G or T) in place of the morpholino derivative. Specifically, in these cases, elongation products corresponding to the 18-mer and 24-mer are found. […]

[2] = target: T2, Klenow fragment (Escherichia coli, UniProt P00582); assay: as above; settings: for enzymatic incorporation at 3' end of primer A: MATPP 400, 200, 50 μM, MATPPF 2.5 mM, 400, 200, 50 μM, 37° C., 10 minutes; for interruption of chain elongation after incorporation: with dGTP and dTTP (solution 2P), FIG. 4
T2 construct: the Klenow fragment (Boehringer Mannheim); purchased Boehringer Mannheim
Procedure: as §1, §2, §3, §4, §5, §6, §7, §8, §9, §10

[3] = target: T3, Taq DNA polymerase (Thermus aquaticus, UniProt P19821); assay: as above; settings: for enzymatic incorporation at 3' end of primer A: MATPP 400, 200, 50 μM, MATPPF 2.5 mM, 400, 200, 50 μM, 70° C., 10 minutes; for interruption of chain elongation after incorporation: with dGTP and dTTP (solution 2P), FIG. 4
T3 construct: purchased Boehringer Mannheim
Procedure: as §1, §2, §3, §4, §5, §6, §7, §8, §9, §10

[4] = target: T4, Taq polymerase (Thermus aquaticus, UniProt P19821); assay: Sequencing reaction with fluorescent primers on Bluescript plasmid DNA (Example 13); settings: 200 and 500 μM; Bluescript plasmid template; FIG. 1
T4 construct: purchased Perkin-Elmer
Procedure: The morpholino T glycine 4 of Example 2 is tested in sequence reaction with fluorescent primers (Applied Biosystems, Perkin-Elmer, Foster City, Calif., USA) on a standard template which is a Bluescript plasmid DNA (Stratagene, La Jolla, Calif., USA). The enzyme used is a Taq polymerase (Perkin-Elmer), which is used in its buffer (TACS buffer, Perkin-Elmer).
Two reactions are carried out with morpholino T glycine at 200 and 500 μM (Table 4), and also two control reactions (Table 5) with dideoxynucleotide T (Boehringer).
The reaction medium, of a total volume of 10 μL, contains 125 ng of template, 1.25 pmol of fluorescent primer and the other constituents given in Tables 4 and 5. The medium is subjected to heat cycles in order to produce in number molecules of newly formed DNA strands. […]
The products of the sequencing reactions are detected by fluorescence. The results obtained are represented in the attached figure which illustrates the detection of the products in the sequencing gel analysed by the Perkin-Elmer Analysis software, version 3.0.
For each test, the primers are identifiable by their fluorescence properties, the ROX label (red) for the control reaction 250 μm dideoxythymidine triphosphate (dashed-curve) and the label JOE (green) for the reaction concerning the 200 μm morpholino T glycine (solid-line curve).

[5] = target: T5, Taq polyerase (Thermus aquaticus, UniProt P19821); assay: Sequencing reaction with fluorescent primers on Bluescript plasmid DNA (Example 14); settings: fluorescence detection of the sequencing products
T5 construct: purchased Perkin-Elmer
Procedure: Morpholino A putrescine (MATPP) 7 and morpholino A fluorescein (MATPPF) 12 are tested in squencing reaction with fluorescent primers (Applied Biosystems, Perkin-Elmer, Foster City, Calif., USA) on a standard template which is a Bluescript plasmid DNA (Stratagene, La Jolla, Calif., USA). The enzyme used is a Taq polyerase (Perkin-Elmer) which is used in its buffer (Thermo Sequenase buffer, Amersham Life Science).
Three sequencing reactions are carried out with MATPP at 100, 200 and 400 μM and four sequencing reactions are carried out with MATPPF at 200, 500, 1000 and 5000 μM, along with control reactions with the dideoxynucleotide ddATP at a concentration of 250 μM (Boehringer).
The reaction medium, of a total volume of 10 μL, contains 125 ng of template, 1.25 pmol of fluorescent primer and the other constituents as described in the tables.
The medium is subjected to heating cycles in order to produce in number molecules of newly formed DNA strands. […]
The amplification products are purified on a Sephadex G50 column. The products of each sequencing reaction are mixed with the products of a control reaction and analysed by electrophoresis. […]

T3 sequence (P19821 whole entry): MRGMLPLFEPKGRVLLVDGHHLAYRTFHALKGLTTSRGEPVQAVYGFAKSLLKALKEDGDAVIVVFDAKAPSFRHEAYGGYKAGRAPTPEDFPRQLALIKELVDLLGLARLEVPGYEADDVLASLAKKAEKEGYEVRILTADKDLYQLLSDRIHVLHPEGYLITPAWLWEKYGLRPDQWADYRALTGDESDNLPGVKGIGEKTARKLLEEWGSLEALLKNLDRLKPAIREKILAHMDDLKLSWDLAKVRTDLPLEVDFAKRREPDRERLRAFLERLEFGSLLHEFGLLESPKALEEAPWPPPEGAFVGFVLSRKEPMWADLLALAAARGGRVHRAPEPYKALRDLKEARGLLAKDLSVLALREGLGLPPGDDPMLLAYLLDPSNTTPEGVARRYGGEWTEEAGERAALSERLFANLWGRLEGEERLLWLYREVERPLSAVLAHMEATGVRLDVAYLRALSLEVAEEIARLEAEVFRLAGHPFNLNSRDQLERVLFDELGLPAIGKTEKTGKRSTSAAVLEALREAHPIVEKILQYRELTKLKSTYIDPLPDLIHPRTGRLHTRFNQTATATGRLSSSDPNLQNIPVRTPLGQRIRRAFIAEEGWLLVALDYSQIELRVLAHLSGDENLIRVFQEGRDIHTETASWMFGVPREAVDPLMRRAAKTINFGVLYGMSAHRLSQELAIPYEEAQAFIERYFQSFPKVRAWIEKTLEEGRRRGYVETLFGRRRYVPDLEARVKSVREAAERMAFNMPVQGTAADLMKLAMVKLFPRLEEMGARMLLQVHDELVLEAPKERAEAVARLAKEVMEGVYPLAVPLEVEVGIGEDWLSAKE
T1 sequence (P00582 324-928 D355A/E357A): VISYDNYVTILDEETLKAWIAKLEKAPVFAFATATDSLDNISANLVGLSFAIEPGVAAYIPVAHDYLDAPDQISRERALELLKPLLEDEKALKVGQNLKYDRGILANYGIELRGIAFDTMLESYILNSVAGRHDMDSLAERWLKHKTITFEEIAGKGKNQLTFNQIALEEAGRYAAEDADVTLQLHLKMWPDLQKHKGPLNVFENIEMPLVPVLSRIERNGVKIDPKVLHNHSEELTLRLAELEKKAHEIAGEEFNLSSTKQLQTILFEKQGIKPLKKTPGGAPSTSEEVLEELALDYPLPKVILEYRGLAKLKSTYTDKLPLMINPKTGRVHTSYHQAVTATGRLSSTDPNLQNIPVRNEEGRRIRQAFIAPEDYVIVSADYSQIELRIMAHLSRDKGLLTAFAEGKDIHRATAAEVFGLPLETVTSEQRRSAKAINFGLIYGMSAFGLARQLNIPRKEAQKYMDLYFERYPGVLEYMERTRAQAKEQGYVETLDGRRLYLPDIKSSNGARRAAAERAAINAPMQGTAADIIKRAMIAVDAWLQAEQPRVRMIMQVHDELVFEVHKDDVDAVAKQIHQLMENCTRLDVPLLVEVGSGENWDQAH
T2 sequence (P00582 324-928): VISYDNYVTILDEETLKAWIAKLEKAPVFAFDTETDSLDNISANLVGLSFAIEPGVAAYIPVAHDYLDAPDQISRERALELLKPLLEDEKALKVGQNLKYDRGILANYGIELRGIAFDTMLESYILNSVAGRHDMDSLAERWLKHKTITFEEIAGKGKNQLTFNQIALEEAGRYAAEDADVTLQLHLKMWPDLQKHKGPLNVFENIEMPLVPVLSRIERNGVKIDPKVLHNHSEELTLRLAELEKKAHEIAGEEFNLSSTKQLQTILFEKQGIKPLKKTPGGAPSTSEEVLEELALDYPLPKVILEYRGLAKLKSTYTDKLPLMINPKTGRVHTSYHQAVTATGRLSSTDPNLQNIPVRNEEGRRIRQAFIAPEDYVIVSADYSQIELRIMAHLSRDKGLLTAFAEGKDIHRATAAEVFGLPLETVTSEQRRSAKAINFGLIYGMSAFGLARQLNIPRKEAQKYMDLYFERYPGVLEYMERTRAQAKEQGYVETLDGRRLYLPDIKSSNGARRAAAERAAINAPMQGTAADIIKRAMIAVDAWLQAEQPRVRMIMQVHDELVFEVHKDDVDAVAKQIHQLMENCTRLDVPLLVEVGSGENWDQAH
T4 sequence (P19821 whole entry): as the sequence (P19821 whole entry) above
T5 sequence (P19821 whole entry): as above

Row | Compound | enzymatic incorporation at 3' end of primer A [1] | interruption of chain elongation after incorporation [1] | enzymatic incorporation at 3' end of primer A [2] | interruption of chain elongation after incorporation [2] | enzymatic incorporation at 3' end of primer A [3] | interruption of chain elongation after incorporation [3] | action as chain terminator in sequencing reaction [4] | incorporation by the Taq polymerase in sequencing reaction [4] | detection of sequencing reaction products [5]
1 | 4-(aminobutyl)-2-(adenosin-9-yl)-6-(hydroxymethyl)morpholine 6-triphosphate [morpholino A putrescine] | incorporate | interruption of the elongation of the chain | incorporate | interruption of the elongation of the chain | incorporate | interruption of the elongation of the chain | – | – | –
2 | 4-(carboxymethyl)-2-(thymidin-1-yl)-6-(hydroxymethyl)morpholine 6-triphosphate [morpholino T glycine] | – | – | – | – | – | – | acts correctly as a chain terminator | correctly incorporated in a base-specific manner | –
3 | Nc1ncnc2c1ncn2C1CN(CCCCNC(=S)Nc2ccc3c(c2)C(=O)OC32c3ccc(O)cc3Oc3cc(O)ccc32)CC(COP(=O)(O)OP(=O)(O)OP(=O)(O)O)O1 (stereo not drawn) [morpholino A fluorescein] | incorporate | stops the polymerization of the complementary strand | incorporate | stops the polymerization of the complementary strand | incorporate | stops the polymerization of the complementary strand | – | – | detected by means of the fluorophore borne by this derivative

— US6838560B1, “Process for manufacturing morpholino-nucleotides, and use thereof for the analysis of and labelling of nucleic acid sequences” (priority 1999, dated 2005)
